Data on two compounds can be found in patent US12233106B2, “C-type natriuretic peptide variants to treat skeletal dysplasia in children” (priority 2021, dated 2025).

The conditions of data set [1]: in vivo.
Data set [2] is described as follows: clinical. Conditions: human, in vivo, 15 ug/kg. From the text:
Primary endpoints include length/height Z-score at Week 52 and evaluation of any adverse events. Secondary endpoints include AGV at Week 52, Bilateral X-rays of lower extremities, Lumbar spine X-rays, DXA of whole body and spine, AUC0-∞, AUC0-t, Cmax, Tmax, t1/2, CL/F, VZ/F, Hip monitoring clinical assessments, Bayley-III, WeeFIM, and ITQOL scores, CBCL scores, Anti-vosoritide total antibody (TAb), Anti-vosoritide antibody cross-reactivity with endogenous CNP, ANP, and BNP (TAb), Anti-vosoritide neutralizing antibody (NAb), CXM and bone-specific alkaline phosphatase, Collagen type II (CTX-II), Cyclic guanosine monophosphate (cGMP), anthropometric measurements, upper to lower body segment ratio, upper arm length to lower arm (forearm) length ratio, upper leg length (thigh) to knee to heel length ratio, upper leg length (thigh) to tibial length ratio, and arm span to standing height ratio.
The pharmacokinetics of vosoritide in the different populations of patients was also analyzed for any change in PK (Table 4). PD information (plasma cGMP and serum CXM) in 4 sentinel subjects and 33 randomized subjects (aged≥24 to <60 months) receiving 30 μg/kg vosoritide was available.

For data set [3] the following is noted: normal human; cited from earlier work.

For the compound `CC[C@H](C)[C@@H]1NC(=O)[C@H](CCCNC(=N)N)NC(=O)[C@H](CC(=O)O)NC(=O)[C@H](CC(C)C)NC(=O)[C@H](CCCCN)NC(=O)[C@H](CC(C)C)NC(=O)CNC(=O)[C@H](Cc2ccccc2)NC(=O)[C@@H](NC(=O)CNC(=O)[C@H](CCCCN)NC(=O)[C@H](CO)NC(=O)[C@H](CC(C)C)NC(=O)CNC(=O)[C@H](CCCCN)NC(=O)[C@H](CCCCN)NC(=O)[C@H](CC(N)=O)NC(=O)[C@H](C)NC(=O)CNC(=O)[C@H](CCCCN)NC(=O)[C@H](Cc2ccc(O)cc2)NC(=O)[C@H](CCCCN)NC(=O)[C@H](CCCNC(=N)N)NC(=O)[C@H](C)NC(=O)[C@H](CC(N)=O)NC(=O)[C@@H]2CCCN2C(=O)[C@H](Cc2c[nH]cn2)NC(=O)[C@H](CCC(=O)O)NC(=O)[C@H](CCC(N)=O)NC(=O)CNC(=O)[C@@H]2CCCN2)CSSC[C@@H](C(=O)O)NC(=O)CNC(=O)[C@H](CC(C)C)NC(=O)CNC(=O)[C@H](CO)NC(=O)[C@H](CCSC)NC(=O)[C@H](CO)NC(=O)CNC1=O` [vosoritide], in data set [1], the “Adverse event of grade two or higher related to the study drug (CTCAE v5.0)” value is “No patient”. Also, the CL/F in data set [2] (Mean CL/F, range over visits) lay in the range of 82.1 to 150 mL/min/kg. Besides, in data set [2] (Mean Vz/F, range over visits), the Vd/F was in the range of 2.65 to 3.8 L/kg. Also, the time of peak concentration (Tmax) was 14 to 15.5 min in data set [2] (Median Tmax, range over visits) and 14 min in data set [2] (sc, tmax, median [minimum, maximum]). The compound also registered a Cmax in data set [2] (mean Cmax, range over visits) of 3.81 to 6.86 ng/mL. This compound also came in with a half-life in data set [2] (mean t1/2, range over visits) of 15.2 to 29.3 min.
Turning to “CNP: mature 22-amino acid C-type natriuretic peptide (wild type CNP-22)”, the “in vivo (plasma) half-life” value in data set [3] is 2.6 min.

One may read the CL/F as the apparent clearance, not corrected for the fraction that reaches the circulation. One may read the Vd/F as the volume of distribution divided by bioavailability. As usually defined, the Tmax is the time from dosing to the highest level. What is called Cmax is the peak of the concentration-time curve. Usually half-life stands for the time needed for the level to fall by half in the phase considered.
